Test results taken from patent publication US20240247080A1, “GLP1/GIP/NPY2 RECEPTOR TRIPLE AGONISTS” (Boehringer Ingelheim International GmbH, priority 2022, published 2024).
Where two headings read alike, the source gives them in different places. Starred links: 1 amine or outer side, 2 acyl side, 3 side chain; linkers in the order of their positions; H or OH if unused. Non-standard residues stand in square brackets, D forms with d. Groups on a side chain read outwards from the residue. *: point of attachment. C20 diacid = O=C(O)CCCCCCCCCCCCCCCCCCC(=O)*; C18 diacid = O=C(O)CCCCCCCCCCCCCCCCC(=O)*; γGlu = O=C(O)[C@H](CCC(=O)[*:2])N[*:1]; εLys = N[C@@H](CCCCN[*:1])C(=O)[*:2]; AEEA = NCCOCCOCC(=O)O; Aib = CC(C)(N)C(=O)O; Ahx = NCCCCCC(=O)O

Assays:
hGIPR = target: T1, hGIPR (Homo sapiens, UniProt P48546); test: hGIPR CreLuc reporter gene assay in 0.5% and 100% plasma; format: cell-based; conditions: CreLuc reporter gene assay
T1 construct: expressed in transfected cells; host or cells: CHO cells carrying a CRE-luciferase reporter gene
T1 sequence (P48546 22-466): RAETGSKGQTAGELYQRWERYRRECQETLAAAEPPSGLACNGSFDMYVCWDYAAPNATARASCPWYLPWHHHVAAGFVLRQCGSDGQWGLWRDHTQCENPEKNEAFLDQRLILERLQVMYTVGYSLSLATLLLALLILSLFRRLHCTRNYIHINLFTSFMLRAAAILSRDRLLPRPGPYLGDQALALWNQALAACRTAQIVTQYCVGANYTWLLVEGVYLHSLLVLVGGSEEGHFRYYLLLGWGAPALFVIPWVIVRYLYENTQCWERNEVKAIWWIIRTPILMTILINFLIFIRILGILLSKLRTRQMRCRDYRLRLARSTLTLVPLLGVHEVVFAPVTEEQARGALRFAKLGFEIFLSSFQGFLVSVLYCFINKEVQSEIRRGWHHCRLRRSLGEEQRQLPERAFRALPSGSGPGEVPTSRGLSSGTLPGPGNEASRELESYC
Text: (§1) Example 1: hGLPR/hGIPR/hNPY2R CreLuc Assay in 0.5% and 100% Plasma
(§2) CHO and HEK-293 recombinant cell lines express a luciferase reporter gene under control of the cAMP responsive element (CRE). As a second recombinant protein the GLP-1 and NPY2 receptors were expressed in the reporter gene HEK cells, and the GIP receptor was expressed in the reporter gene CHO cells, respectively. Stimulation of these recombinant cells with an agonist leads to an increase of intracellular cAMP levels. In the presence of cAMP, the transcription factor CRE binding protein (CREB) binds to the CRE and to the CREB binding protein (CBP), which leads to transcription of the luciferase reporter gene. Peptides upon serial-dilution in 100% DMSO were transferred into 384-well assay plates with 5 μl pre-dispensed assay buffer (1×HBSS, 20 mM HEPES, pH7.4 supplemented with 0.5% human plasma) using acoustic dispensing on a Labcyte ECHO. Cryo-preserved transgenic reporter gene cells were thawed in assay buffer. 20 μl (10.000 cells/well) were added to the plate with the peptides and incubated for 4 hours at 37° C. in a humidified incubator. Following incubation, assay plates are equilibrated to room temperature, followed by addition of 25 μl of Bright-GIo™ Luciferase reagent, incubation at room temperature for 10 minutes and analysis of luminescence (Envision Reader). Concentration response evaluation of compounds was performed with 8 concentrations of peptides (covering four decades). EC50 values were calculated by non-linear regression using sigmoid concentration-response with variable slope. The same assays were run in the presence of 100% plasma with no additional buffer constituents.

hGLP1R = target: T2, hGLP1R (Homo sapiens, UniProt P43220); test: hGLP1R CreLuc reporter gene assay in 0.5% and 100% plasma; format: cell-based; conditions: CreLuc reporter gene assay
T2 construct: expressed in transfected cells; host or cells: HEK-293 cells carrying a CRE-luciferase reporter gene
T2 sequence (P43220 24-463): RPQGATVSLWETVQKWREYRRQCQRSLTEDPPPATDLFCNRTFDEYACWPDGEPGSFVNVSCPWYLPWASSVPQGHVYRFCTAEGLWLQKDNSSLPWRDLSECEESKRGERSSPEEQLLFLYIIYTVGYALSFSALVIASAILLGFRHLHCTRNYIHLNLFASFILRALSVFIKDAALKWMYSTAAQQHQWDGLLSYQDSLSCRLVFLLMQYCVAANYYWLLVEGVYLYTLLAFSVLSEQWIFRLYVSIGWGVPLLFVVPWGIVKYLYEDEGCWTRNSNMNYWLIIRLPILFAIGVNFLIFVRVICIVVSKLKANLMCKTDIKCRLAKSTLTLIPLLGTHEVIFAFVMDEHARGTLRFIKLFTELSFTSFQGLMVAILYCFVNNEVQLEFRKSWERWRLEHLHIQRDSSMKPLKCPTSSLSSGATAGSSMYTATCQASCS
Text: as §1, §2

[1] = 0.5% human plasma, read-out: hGIPR 0.5% hP
[2] = 0.5% human plasma, read-out: hGLP1R 0.5% hP
[3] = 100% human plasma, read-out: hGIPR 100% hP
[4] = 100% human plasma, read-out: hGLP1R 100% hP

Substance	EC50 (hGIPR; [1]) [nM]	EC50 (hGLP1R; [2]) [nM]	EC50 (hGIPR; [3]) [nM]	further results
H-Y[Aib]EGTFTSDLSI[Aib]LEKQAQ[Aib]AFVEWLIK([εLys-γGlu-γGlu-γGlu-γGlu-γGlu-γGlu-C20 diacid])GGPSSGASLRHYYNWLTRQRY-NH2 [Compound 172, Y-Aib-E-G-T-F-T-S-D-L-S-I-Aib-L-E-K-Q-A-Q-Aib-A-F-V-E-W-L-I-K(1,3)-GGPSSGASLRHYYNWLTRQRY-NH2.C20DA-gGlu-gGlu-gGlu-gGlu-gGlu-gGlu-eLys(1,2)]				EC50 (hGIPR; hGIPR 0.5% hP, 0.5% human plasma): 0.21 nM; EC50 (hGIPR; hGIPR 100% hP, 100% human plasma): 1.83 nM; EC50 (hGLP1R; hGLP1R 0.5% hP, 0.5% human plasma): 0.07 nM; EC50 (hGLP1R; hGLP1R 100% hP, 100% human plasma): 2 nM
H-Y[Aib]EGTFTSDYSI[Aib]LEDQAQ[Aib]AFVEWLIK([εLys-γGlu-γGlu-γGlu-γGlu-γGlu-γGlu-C20 diacid])GGPSSGASLRHYYNWLTRQRY-NH2 [Compound 90, Y-Aib-E-G-T-F-T-S-D-Y-S-I-Aib-L-E-D-Q-A-Q-Aib-A-F-V-E-W-L-I-K(1,3)-GGPSSGASLRHYYNWLTRQRY-NH2.C20DA-gGlu-gGlu-gGlu-gGlu-gGlu-gGlu-eLys(1,2)]	1.03	0.3		
H-Y[Aib]EGTFTSDYSI[Aib]LEEQAQ[Aib]AFVEWLIK([εLys-γGlu-γGlu-γGlu-γGlu-γGlu-C20 diacid])GGPSSGASLRHYYNWLTRQRY-NH2 [Compound 181, Y-Aib-E-G-T-F-T-S-D-Y-S-I-Aib-L-E-E-Q-A-Q-Aib-A-F-V-E-W-L-I-K(1,3)-GGPSSGASLRHYYNWLTRQRY-NH2.C20DA-gGlu-gGlu-gGlu-gGlu-gGlu-eLys(1,2)]	0.16	0.14	1.23	
H-Y[Aib]EGTFTSDYSI[Aib]LEEQAQ[Aib]AFVQWLIK([εLys-AEEA-γGlu-γGlu-γGlu-γGlu-γGlu-C20 diacid])GGPSSGASLRHYYNWLTRQRY-NH2 [Compound 45, Y-Aib-E-G-T-F-T-S-D-Y-S-I-Aib-L-E-E-Q-A-Q-Aib-A-F-V-Q-W-L-I-K(1,3)-GGPSSGASLRHYYNWLTRQRY-NH2.C20DA-gGlu-gGlu-gGlu-gGlu-gGlu-OEG-eLys(1,2)]	0.14	0.11	1.15	EC50 (hGLP1R; [4]): 1.6 nM
H-Y[Aib]EGTFTSDYSI[Aib]LEEQAQ[Aib]AFVQWLIK([εLys-γGlu-γGlu-γGlu-γGlu-γGlu-C20 diacid])GGPSSGASLRHYYNWLTRQRY-NH2 [Compound 34, Y-Aib-E-G-T-F-T-S-D-Y-S-I-Aib-L-E-E-Q-A-Q-Aib-A-F-V-Q-W-L-I-K(1,3)-GGPSSGASLRHYYNWLTRQRY-NH2.C20DA-gGlu-gGlu-gGlu-gGlu-gGlu-eLys(1,2)]	0.13	0.09	1.61	EC50 (hGLP1R; [4]): 1.39 nM
H-Y[Aib]EGTFTSDYSI[Aib]LEKQAQ[Aib]EFVEWLIK([Ahx-γGlu-γGlu-γGlu-γGlu-γGlu-γGlu-C18 diacid])GGPSEGASLRHYYNWLTRQRY-NH2 [Compound 279, Y-Aib-E-G-T-F-T-S-D-Y-S-I-Aib-L-E-K-Q-A-Q-Aib-E-F-V-E-W-L-I-K(1,3)-GGPSEGASLRHYYNWLTRQRY-NH2.C18DA-gGlu-gGlu-gGlu-gGlu-gGlu-gGlu-AHX(1,2)]	0.71			
H-Y[Aib]EGTFTSDYSI[Aib]LEKQAQ[Aib]EFVEWLIK([γGlu-γGlu-γGlu-γGlu-C20 diacid])GGPSEGASLRHYYNWLTRQRY-NH2 [Compound 271, Y-Aib-E-G-T-F-T-S-D-Y-S-I-Aib-L-E-K-Q-A-Q-Aib-E-F-V-E-W-L-I-K(1,3)-GGPSEGASLRHYYNWLTRQRY-NH2.C20DA-gGlu-gGlu-gGlu-gGlu(1,2)]	0.62		2.62	
H-Y[Aib]EGTFTSDYSI[Aib]LE[Aib]QAQ[Aib]AFVEWLIK([εLys-γGlu-γGlu-γGlu-γGlu-γGlu-γGlu-C20 diacid])GGPSSGASLRHYYNWLTRQRY-NH2 [Compound 199, Y-Aib-E-G-T-F-T-S-D-Y-S-I-Aib-L-E-Aib-Q-A-Q-Aib-A-F-V-E-W-L-I-K(1,3)-GGPSSGASLRHYYNWLTRQRY-NH2.C20DA-gGlu-gGlu-gGlu-glu-gGlu-gGlu-eLys(1,2)]	0.94			
